Key:
Format in all cases: biochemical
full-length human PHD1 = target: T1, full-length human PHD1 (Homo sapiens, UniProt Q96KS0); assay: TR-FRET assay for PHD enzymes, PHD1
T1 construct: FLAG (N); purchased Active Motif (Carlsbad, Calif., USA) 81064; host or cells: baculovirus expression system
Text: (§1) The resulting proximity of the donor fluorophore complex, monoclonal antibody anti-6His-Terbium (Tb)-cryptate Gold, bound to the His-tagged VHL protein, EloB, EloC complex (His-VBC) and the acceptor fluorophore, SA-D2 complex, bound to HIF-1α-hydroxyproline results in a fluorescence resonance energy transfer signal that can be detected and quantified
Recombinant human PHD1 protein (catalog #81064, Lot #24717001) was purchased from Active Motif (Carlsbad, Calif., USA). PHD1 was expressed in a baculovirus expression system as the full-length protein (NCBI accession number NP_542770.2) with an N-terminal FLAG tag (molecular weight 44.9 kDa). Purity (>90%) was assessed by SDS-PAGE.
(§2) For this, 5 μL PHD inhibitor compound was serially diluted with dilution buffer (50 mM HEPES [4-(2-hydroxyethyl)-1-piperazineethanesulfonic acid] pH 7.5, 50 mM sodium chloride [NaCl], 0.01% Tween-20, 0.01% purified bovine serum albumin [BSA]) and mixed with 5 μL PHD enzyme mix prepared as a 4× concentrate in the dilution buffer containing PHD enzyme (60 nM PHD1, 20 nM PHD2, 140 nM PHD3), 40 μM ferrous ammonium sulfate (FAS), 4 mM sodium (Na) ascorbate.
(§3) The IC50 values (mean, standard deviation, standard error of the mean, geometric mean and 95% confidence interval) were determined using a four-parameter curve-fit using GraphPad Prism 7.0 (GraphPad, La Jolla, Calif., USA) and represent the compound concentration plotted against the calculated ratio of 665 nm and 615 nm.

full-length human PHD2 = target: T2, full-length human PHD2 (Homo sapiens, UniProt Q9GZT9); assay: TR-FRET assay for PHD enzymes, PHD2; conditions: read-out: PHD2 IC5 0
T2 construct: The PHD2 construct contained amino acids 1 to 426 of PHD2; His tag (N, cleaved yes); TEV protease cleavage site (N, cleaved yes); host or cells: Sf9 insect cells (baculovirus)
Method: as §1, §2, §3

full-length human PHD3 = target: T3, full-length human PHD3 (Homo sapiens, UniProt Q9H6Z9); assay: TR-FRET assay for PHD enzymes, PHD3
T3 construct: 6-His (N); purchased Active Motif (Carlsbad, Calif., USA) 81033; host or cells: E. coli
Text: as §1
Recombinant human PHD3 protein (molecular weight 31.1 kDa) was purchased from Active Motif (Carlsbad, Calif., USA). It was expressed in E. coli as the full-length protein (NCBI accession number NP_071356.1) with an N-terminal 6-His tag (catalog #81033, Lot #24417001).
as §2, §3

T2 sequence (Q9GZT9 whole entry, the tested form may be a part): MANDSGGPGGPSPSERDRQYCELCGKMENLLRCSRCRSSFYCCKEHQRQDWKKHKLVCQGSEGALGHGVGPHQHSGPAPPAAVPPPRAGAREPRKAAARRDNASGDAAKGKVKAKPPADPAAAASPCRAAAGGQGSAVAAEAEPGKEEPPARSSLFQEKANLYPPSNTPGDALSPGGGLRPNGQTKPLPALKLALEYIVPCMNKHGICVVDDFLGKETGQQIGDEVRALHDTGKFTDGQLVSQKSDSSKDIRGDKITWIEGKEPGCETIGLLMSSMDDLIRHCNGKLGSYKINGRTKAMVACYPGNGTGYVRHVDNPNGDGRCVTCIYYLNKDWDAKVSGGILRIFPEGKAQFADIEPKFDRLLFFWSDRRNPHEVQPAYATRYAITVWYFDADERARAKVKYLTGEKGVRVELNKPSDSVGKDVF
T3 sequence (Q9H6Z9 whole entry): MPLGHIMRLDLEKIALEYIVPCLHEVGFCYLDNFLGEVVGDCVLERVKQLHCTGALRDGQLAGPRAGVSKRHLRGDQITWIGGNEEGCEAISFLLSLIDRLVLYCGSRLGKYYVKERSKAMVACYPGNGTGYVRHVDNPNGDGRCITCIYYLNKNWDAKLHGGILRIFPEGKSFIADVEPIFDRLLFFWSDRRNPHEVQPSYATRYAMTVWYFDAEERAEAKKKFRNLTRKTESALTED
T1 sequence (Q96KS0 whole entry): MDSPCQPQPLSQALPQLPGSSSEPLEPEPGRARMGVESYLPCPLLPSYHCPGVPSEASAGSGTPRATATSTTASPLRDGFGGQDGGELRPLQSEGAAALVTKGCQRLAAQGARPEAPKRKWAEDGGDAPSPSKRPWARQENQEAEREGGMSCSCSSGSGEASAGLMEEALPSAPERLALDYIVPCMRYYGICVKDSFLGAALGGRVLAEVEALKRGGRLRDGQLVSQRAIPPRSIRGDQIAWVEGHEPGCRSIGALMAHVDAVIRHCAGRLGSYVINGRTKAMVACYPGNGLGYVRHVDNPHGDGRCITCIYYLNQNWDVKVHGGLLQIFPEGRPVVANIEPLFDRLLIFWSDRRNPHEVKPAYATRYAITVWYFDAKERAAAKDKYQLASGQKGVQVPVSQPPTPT

Row | SMILES | IC50 (full-length human PHD1) [nM] | IC50 (full-length human PHD2) [nM] | IC50 (full-length human PHD3) [nM]
1 | O=C(O)c1ccc(-n2ncc(-c3ccc(Cl)nc3)c2O)nc1 [Compound 17, 6-(4-(6-chloropyridin-3-yl)-5-hydroxy-1H-pyrazol-1-yl)nicotinic acid] | < 100 | < 100 | < 100
2 | O=C(O)c1ccc(-n2ncc(-c3ccc(Cl)cc3O)c2O)nc1 [Compound 39, 6-(4-(4-chloro-2-hydroxyphenyl)-5-hydroxy-1H-pyrazol-1-yl)nicotinic acid] | 100 to 1000 | < 100 | 1000 to 10000
3 | O=C(O)c1ccc(-n2ncc(-c3ccc(Cl)cc3)c2O)nc1 [Compound 5, 6-(4-(4-Chlorophenyl)-5-hydroxy-1H-pyrazol-1-yl)nicotinic acid] | < 100 | < 100 | 100 to 1000
4 | N#Cc1ccc(-c2cnn(-c3ccc(C(=O)O)cn3)c2O)cc1F [Compound 13, 6-(4-(4-cyano-3-fluorophenyl)-5-hydroxy-1H-pyrazol-1-yl)nicotinic acid] | < 100 | < 100 | < 100
5 | N#Cc1cc(F)c(-c2cnn(-c3ccc(C(=O)O)cn3)c2O)cc1F [Compound 12, 6-(4-(4-Cyano-2,5-difluorophenyl)-5-hydroxy-1H-pyrazol-1-yl)nicotinic acid] | < 100 | < 100 | 100 to 1000
6 | Cc1cc(-n2nc(C)c(-c3ccc(C#N)cc3)c2O)ncc1C(=O)O [Compound 18, 6-(4-(4-cyanophenyl)-5-hydroxy-3-methyl-1H-pyrazol-1-yl)-4-methylnicotinic acid] | < 100 | < 100 | < 100
7 | Cc1nn(-c2ccc(C(=O)O)cn2)c(O)c1-c1ccc(Cl)c(F)c1 [Compound 26, 6-(4-(4-chloro-3-fluorophenyl)-5-hydroxy-3-methyl-1H-pyrazol-1-yl)nicotinic acid] | < 100 | < 100 | 100 to 1000
8 | Cc1nn(-c2ccc(C(=O)OC(C)(C)C)cn2)c(O)c1-c1ccc(C#N)cc1 [Compound 10, Tert-butyl 6-(4-(4-cyanophenyl)-5-hydroxy-3-methyl-1H-pyrazol-1-yl)nicotinate] | < 100 | < 100 | ≥ 10000
9 | O=C(O)c1ccc(-n2ncc(-c3ccc(F)cc3)c2O)nc1 [Compound 7, 6-(4-(4-Fluorophenyl)-5-hydroxy-1H-pyrazol-1-yl)nicotinic acid] | < 100 | < 100 | 1000 to 10000
10 | Cc1cc(-c2cnn(-c3ccc(C(=O)O)cn3)c2O)ccc1O [Compound 16, 6-(5-hydroxy-4-(4-hydroxy-3-methylphenyl)-1H-pyrazol-1-yl)nicotinic acid] | 100 to 1000 | 100 to 1000 | 1000 to 10000
11 | Cc1cc(C#N)ccc1-c1cnn(-c2ccc(C(=O)OC(C)(C)C)cn2)c1O [Compound 8, Tert-butyl 6-(4-(4-cyano-2-methylphenyl)-5-hydroxy-1H-pyrazol-1-yl)nicotinate] | < 100 | < 100 | < 100
